In brackets after ≈: the same amount, converted by molar mass.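 In this assay, cells in 96-well plates receive the compound at five concentrations for 48 hours. Endpoints are linearly interpolated between the surrounding concentrations. GI50: concentration for 50% inhibition of growth. TGI denotes the concentration required for complete inhibition of growth.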
What was measured:
Assay in all cases: NCI-60 cell line screen, 48 h
[1] = tested on: 786-0 renal
[2] = tested on: A498 renal
[3] = tested on: A549 NSCLC
[4] = tested on: ACHN renal
[5] = tested on: CAKI-1 renal
[6] = tested on: CCRF-CEM leukemia
[7] = tested on: COLO 205 colon
[8] = tested on: DU-145 prostate
[9] = tested on: EKVX NSCLC
[10] = tested on: HCC-2998 colon
[11] = tested on: HCT-116 colon
[12] = tested on: HCT-15 colon
[13] = tested on: HL-60(TB) leukemia
[14] = tested on: HOP-62 NSCLC
[15] = tested on: HOP-92 NSCLC
[16] = tested on: IGROV1 ovarian
[17] = tested on: K-562 leukemia
[18] = tested on: KM12 colon
[19] = tested on: LOX IMVI melanoma
[20] = tested on: M14 melanoma
[21] = tested on: MALME-3M melanoma
[22] = tested on: MCF7 breast
[23] = tested on: MDA-MB-231 breast
[24] = tested on: MDA-MB-435
[25] = tested on: MDA-N
[26] = tested on: MOLT-4 leukemia
[27] = tested on: NCI-H226 lung
[28] = tested on: NCI-H23 lung
[29] = tested on: NCI-H522 lung
[30] = tested on: NCI/ADR-RES ovarian
[31] = tested on: OVCAR-3 ovarian
[32] = tested on: OVCAR-4 ovarian
[33] = tested on: OVCAR-5 ovarian
[34] = tested on: OVCAR-8 ovarian
[35] = tested on: PC-3 prostate
[36] = tested on: RPMI-8226 leukemia
[37] = tested on: RXF 393 renal
[38] = tested on: SF-295 CNS
[39] = tested on: SF-539 CNS
[40] = tested on: SK-MEL-2 melanoma
[41] = tested on: SK-MEL-28 melanoma
[42] = tested on: SK-MEL-5 melanoma
[43] = tested on: SK-OV-3 ovarian
[44] = tested on: SN12C renal
[45] = tested on: SNB-19 CNS
[46] = tested on: SNB-75 CNS
[47] = tested on: SW-620 colon
[48] = tested on: T-47D breast
[49] = tested on: TK-10 renal
[50] = tested on: U251 CNS
[51] = tested on: UACC-257 melanoma
[52] = tested on: UACC-62 melanoma
[53] = tested on: UO-31 renal
[54] = tested on: HT29 colon
[55] = tested on: BT-549 breast
[56] = tested on: HS 578T breast
[57] = tested on: NCI-H460 lung
[58] = tested on: SF-268 CNS
[59] = tested on: SR leukemia

Work on `COc1ccc(-n2c(=O)n(-c3ccccc3)c(=O)n2-c2ccc(OC)cc2)cc1` yielded a TGI [1] greater than 100 µM, a TGI [2] greater than 100 µM and a TGI [3] greater than 100 µM. For the same compound, the TGI [4] was greater than 100 µM, the TGI [5] was 7.59 µM and the TGI [6] was greater than 100 µM. For the same compound, the TGI [7] was greater than 100 µM, the TGI [8] was greater than 100 µM and the TGI [9] was greater than 100 µM. The TGI [10] was greater than 100 µM, the TGI [11] was greater than 100 µM and the TGI [12] was greater than 100 µM. The TGI [13] was greater than 100 µM, the TGI [14] was greater than 100 µM and the TGI [15] was greater than 100 µM. For the same compound, the TGI [16] was greater than 100 µM, the TGI [17] was greater than 100 µM and the TGI [18] was greater than 100 µM. For the same compound, the TGI [19] was greater than 100 µM, the TGI [20] was greater than 100 µM and the TGI [21] was greater than 100 µM. For the same compound, the TGI [22] was greater than 100 µM, the TGI [23] was greater than 100 µM and the TGI [24] was greater than 100 µM. It also gave a TGI [25] greater than 100 µM, a TGI [26] greater than 100 µM and a TGI [27] greater than 100 µM. For the same compound, the TGI [28] was greater than 100 µM, the TGI [29] was greater than 100 µM and the TGI [30] was greater than 100 µM. It also gave a TGI [31] greater than 100 µM, a TGI [32] greater than 100 µM and a TGI [33] greater than 100 µM. It also gave a TGI [34] greater than 100 µM, a TGI [35] greater than 100 µM and a TGI [36] greater than 100 µM. It also gave a TGI [37] greater than 100 µM, a TGI [38] greater than 100 µM and a TGI [39] greater than 100 µM. For the same compound, the TGI [40] was greater than 100 µM, the TGI [41] was greater than 100 µM and the TGI [42] was greater than 100 µM. The TGI [43] was greater than 100 µM, the TGI [44] was greater than 100 µM and the TGI [45] was greater than 100 µM. For the same compound, the TGI [46] was greater than 100 µM, the TGI [47] was greater than 100 µM and the TGI [48] was greater than 100 µM. For the same compound, the TGI [49] was greater than 100 µM, the TGI [50] was greater than 100 µM and the TGI [51] was greater than 100 µM. The TGI [52] was greater than 100 µM and the TGI [53] was greater than 100 µM.

Work on `CC(=O)OCCOCN1C(=O)NC(=O)/C(=C/c2cccc(OCc3ccccc3)c2)C1=O` yielded a GI50 [1] of 62.1 µg/mL, a GI50 [6] of 25 µg/mL and a TGI [6] of 58.1 µg/mL. For the same compound, the GI50 [8] was 66 µg/mL, the GI50 [11] was 47.8 µg/mL and the GI50 [13] was 15 µg/mL. For the same compound, the TGI [13] was 48.6 µg/mL, the GI50 [54] was 48 µg/mL and the GI50 [16] was 33.6 µg/mL. It also gave a GI50 [17] of 34.9 µg/mL, a GI50 [19] of 35.7 µg/mL and a GI50 [20] of 55.4 µg/mL. It also gave a GI50 [22] of 42.5 µg/mL, a GI50 [23] of 94.7 µg/mL and a GI50 [24] of 63.6 µg/mL. For the same compound, the GI50 [25] was 29.4 µg/mL (≈ 67.1 µM), the GI50 [26] was 35.3 µg/mL and the GI50 [30] was 19.9 µg/mL. The TGI [30] was 45.4 µg/mL, the GI50 [31] was 50.3 µg/mL and the GI50 [34] was 37.9 µg/mL. For the same compound, the GI50 [36] was 29.1 µg/mL, the TGI [36] was 73.2 µg/mL and the GI50 [39] was 23.4 µg/mL. For the same compound, the TGI [39] was 79.1 µg/mL, the GI50 [42] was 33.5 µg/mL and the GI50 [44] was 66 µg/mL. For the same compound, the GI50 [47] was 68.1 µg/mL, the GI50 [48] was 73.9 µg/mL and the GI50 [50] was 55.7 µg/mL. For the same compound, the GI50 [52] was 48.5 µg/mL and the GI50 [53] was 65.9 µg/mL.

`NC(=S)N=Nc1c(O)c2ccccc2c2ccccc12` showed a GI50 [1] of 31.7 µM, a TGI [1] of 88.2 µM and a GI50 [2] of 14.9 µM. It also gave a TGI [2] of 45.7 µM, a GI50 [3] of 3.44 µM and a TGI [3] of 12.1 µM. The GI50 [4] was 8.07 µM, the TGI [4] was greater than 100 µM and the GI50 [55] was 1.97 µM. The TGI [55] was 4.95 µM, the GI50 [5] was 37.9 µM and the TGI [5] was greater than 100 µM. The GI50 [6] was 28.6 µM, the TGI [6] was greater than 71.6 µM and the GI50 [7] was 22.8 µM. For the same compound, the TGI [7] was 73.6 µM, the GI50 [8] was 1.9 µM and the TGI [8] was 3.36 µM. The GI50 [10] was 36.3 µM, the TGI [10] was greater than 100 µM and the GI50 [11] was 4.35 µM. The TGI [11] was 51.5 µM, the GI50 [12] was 3.22 µM and the TGI [12] was greater than 55.4 µM. The GI50 [13] was 20 µM, the TGI [13] was 46 µM and the GI50 [14] was 2.31 µM. For the same compound, the TGI [14] was 7.87 µM, the GI50 [15] was 18.4 µM and the TGI [15] was 51.6 µM. The GI50 [56] was 2.17 µM, the TGI [56] was 7.96 µM and the GI50 [54] was 19.3 µM. The TGI [54] was greater than 100 µM, the GI50 [16] was 27.2 µM and the TGI [16] was greater than 100 µM. It also gave a GI50 [17] of 5.98 µM, a TGI [17] of 28.3 µM and a GI50 [18] of 48.2 µM. For the same compound, the TGI [18] was greater than 100 µM, the GI50 [19] was 2.81 µM and the TGI [19] was 11.1 µM. For the same compound, the GI50 [20] was 1.78 µM, the TGI [20] was 3.35 µM and the GI50 [21] was 1.96 µM. For the same compound, the TGI [21] was 3.58 µM, the GI50 [22] was 1.88 µM and the TGI [22] was 4.54 µM. The GI50 [23] was 16.1 µM, the TGI [23] was 60.2 µM and the GI50 [24] was 1.85 µM. The TGI [24] was 3.45 µM, the GI50 [26] was 33.7 µM and the TGI [26] was greater than 73.5 µM. It also gave a GI50 [27] of 21.3 µM, a TGI [27] of 70.1 µM and a GI50 [28] of 2.26 µM. For the same compound, the TGI [28] was 6.1 µM, the GI50 [57] was 3.23 µM and the TGI [57] was 11.6 µM. The GI50 [29] was 3.22 µM, the TGI [29] was 9.66 µM and the GI50 [30] was 4.3 µM. For the same compound, the TGI [30] was 27 µM, the GI50 [31] was 3.02 µM and the TGI [31] was 10.2 µM. The GI50 [32] was 13 µM, the TGI [32] was 37 µM and the GI50 [33] was 2.45 µM. The TGI [33] was 6.94 µM, the GI50 [34] was 4.32 µM and the TGI [34] was 22.7 µM. The GI50 [35] was 9.05 µM, the TGI [35] was 66.6 µM and the GI50 [36] was 9.73 µM. It also gave a TGI [36] greater than 100 µM, a GI50 [37] of 18.7 µM and a TGI [37] of 44.7 µM. The GI50 [58] was 10.2 µM, the TGI [58] was 35.7 µM and the GI50 [38] was 3.01 µM. It also gave a TGI [38] of 10.2 µM, a GI50 [39] of 2.48 µM and a TGI [39] of 9.16 µM. For the same compound, the GI50 [40] was 14.9 µM, the TGI [40] was 33.8 µM and the GI50 [41] was 2.98 µM. It also gave a TGI [41] of 10 µM, a GI50 [42] of 1.41 µM and a TGI [42] of 2.9 µM. For the same compound, the GI50 [43] was 21.5 µM, the TGI [43] was 54.2 µM and the GI50 [44] was 1.73 µM. For the same compound, the TGI [44] was 3.47 µM, the GI50 [45] was 3.12 µM and the TGI [45] was 12.6 µM. The GI50 [46] was 1.34 µM, the TGI [46] was 3.24 µM and the GI50 [59] was 9.64 µM. The TGI [59] was 35.8 µM, the GI50 [47] was 3.44 µM and the TGI [47] was 26.6 µM. It also gave a GI50 [48] of 14 µM, a TGI [48] greater than 100 µM and a GI50 [49] of 44.6 µM. It also gave a TGI [49] greater than 94.1 µM, a GI50 [50] of 3.07 µM and a TGI [50] of 11.4 µM. It also gave a GI50 [51] of 1.72 µM, a TGI [51] of 3.31 µM and a GI50 [52] of 1.69 µM. The TGI [52] was 3.19 µM, the GI50 [53] was 3.26 µM and the TGI [53] was greater than 76.1 µM.

Reference: PubChem BioAssay (NCI)
